Reference: PubChem BioAssay AID1924 (Vanderbilt High Throughput Screening Facility, 2009)

Tested on: Vesicular inhibitory amino acid transporter (Rattus norvegicus) + Acetylcholine receptor subunit alpha (Homo sapiens) + Estrogen receptor (Homo sapiens) + Glucocorticoid receptor (Homo sapiens) + Sodium channel protein type 1 subunit alpha (Rattus norvegicus) + Beta-2 adrenergic receptor (Homo sapiens) + Muscarinic acetylcholine receptor M2 (Homo sapiens) + Beta-1 adrenergic receptor (Homo sapiens) + 5-hydroxytryptamine receptor 1A (Homo sapiens) + Alpha-2A adrenergic receptor (Homo sapiens) + Muscarinic acetylcholine receptor M1 (Homo sapiens) + Interleukin-1 receptor type 1 (Mus musculus) + D(2) dopamine receptor (Homo sapiens) + Androgen receptor (Rattus norvegicus) + Gamma-aminobutyric acid receptor subunit gamma-2 (Rattus norvegicus) + Muscarinic acetylcholine receptor M3 (Homo sapiens) + D(1A) dopamine receptor (Homo sapiens) + D(4) dopamine receptor (Homo sapiens) + Glutamate receptor ionotropic, kainate 1 (Rattus norvegicus) + Sodium-dependent noradrenaline transporter (Homo sapiens) + Endothelin receptor type B (Homo sapiens) + Alpha-1D adrenergic receptor (Homo sapiens) + Endothelin-1 receptor (Homo sapiens) + Substance-P receptor (Homo sapiens) + Neuropeptide Y receptor type 1 (Homo sapiens) + Adenosine receptor A2a (Homo sapiens) + B2 bradykinin receptor (Homo sapiens) + Adenosine receptor A1 (Homo sapiens) + Sodium-dependent serotonin transporter (Homo sapiens) + Neuronal acetylcholine receptor subunit alpha-3 (Homo sapiens) + Histamine H1 receptor (Homo …
Assay: off-target activity at receptors, channels, transporters, profiling panel, selectivity assay for ROMK channel modulator project, biochemical, MDS panel (AID 1924)
Conditions: MDS Pharma lead profiling binding panel, at 10 µM, stronger effect = higher value

O=[N+]([O-])c1ccc2nc(COCc3nc4ccc([N+](=O)[O-])cc4[nH]3)[nH]c2c1
inhibition: 75% | inhibition (measured here: Adenosine A1 human binding): 14% | inhibition (measured here: Adenosine A3 human binding): 21% | inhibition (measured here: Adrenergic a2A human binding): 14% | inhibition (measured here: Adrenergic b2 human binding): 9% | inhibition (measured here: Bradykinin B2 human binding): -16% | inhibition (measured here: Calcium channel L-type BTZ rat): 22% | inhibition (measured here: Calcium channel L-type DHP rat): 26% | inhibition (measured here: Calcium channel N-type rat): 0% | inhibition (measured here: Dopamine D1 human binding): -2% | inhibition (measured here: Dopamine D2S human binding): -6% | inhibition (measured here: Dopamine D3 human binding): 1% | inhibition (measured here: Estrogen ER alpha human binding): 1%
